Results published in patent EP2407164A1, “Copper II complexes of phenanthroline and their use in cancer treatment” (Dublin Institute of Technology Intellectual Property Ltd, priority 2010, dated 2012).
Numbered stars: 1 amine (or outer) side, 2 acyl side, 3 side chain; on linkers, the order of the positions; unused ones are H or OH. Bridge positions count the residues as written; N and C are the ends. Square brackets hold non-standard residues; d marks the D form. Peptide text beside a SMILES is read from it. I, II: the chains in the order shown. Actinocin(9to1) = Cc1c2oc3c(C)ccc(C(=O)[*:1])c3nc-2c(C(=O)[*:2])c(N)c1=O; NMeV = CN[CH](C(=O)O)C(C)C; Sar = CNCC(=O)O

Assays:
[1] = test system: SW480; assay: MTT cytotoxicity assay, complex 7; type: cell-based; details: SW480 (Dukes' B) colon cancer line, 24 hr
Experimental: (§1) For cytotoxicity evaluation HT29, SW480 and SW620 cell lines were employed; all the cell lines were grown in RPMI 1640 media (Fischer). All media were supplemented with 10% foetal bovine serum (FBS) and 45 IU/ml penicillin and 45 µg/ml streptomycin and cells were maintained at 37 °C in a 5% CO2 humidified incubator.
(§2) For sterilisation samples were filtered with a 0.2 micron cellulose acetate filter. For cytotoxicological evaluation all samples were prepared fresh on the day of exposure. A stock concentration of test compound was prepared in the exposure media (10% DMEM F-12) necessary for the cell line under test. This sample was vortexed to ensure a uniform dispersion of the compound under test.
(§3) For cytotoxicity assays cells were seeded in 96-well microplates (Nunc, Denmark) at a density of 1 x 10^5 cells/ml for the 24 hr test, 5 x10^4 cells/ml for the 48 hr test and 3 x 10^4 cells/ml for the 96 hr test. […] After 24 h of cell attachment, plates were washed with 100 µl/well phosphate buffered saline (PBS) and the cells were treated with increasing concentrations of each compound for 24 h. Six replicate wells were used for each control and test concentration per microplate. Following the desired time of compound exposure, control medium or test exposures were removed, the cells were rinsed with PBS and 100 µl of fresh medium (without FBS or supplements) was added to each well. 10 µl of MTT (5 mg/ml) prepared in PBS was then added to each well and the plates were incubated for 3 h at 37°C in a 5% CO2 humidified incubator. After this incubation period the medium was discarded, the cells were washed with 100 µl of PBS and 100 µl of DMSO was added to each well to extract the dye. The plate was shaken at 240 rpm for 10 min and the absorbance was measured at 570 nm.
(§4) At least three independent experiments were conducted in triplicate for each cell line and toxicity endpoint. […] Control values were set as 100%. Differences between samples and the control were evaluated using the statistical analysis package SPSS 14.0. Statistically significant differences were set at p≤0.05.

[2] = test system: SW620; assay: MTT cytotoxicity assay, complex 7; type: cell-based; details: SW620 (Dukes' C) colon cancer line, 24 hr
Experimental: as §1, §2, §3, §4

[3] = test system: HT29; assay: MTT cytotoxicity assay, complex 7; type: cell-based, Human; details: HT29 colon cancer line, 24 hr
Experimental: as §1, §2
For cytotoxicity assays cells were seeded in 96-well microplates (Nunc, Denmark) at a density of 1 x 10^5 cells/ml for the 24 hr test, 5 x10^4 cells/ml for the 48 hr test and 3 x 10^4 cells/ml for the 96 hr test. […] After 24 h of cell attachment, plates were washed with 100 µl/well phosphate buffered saline (PBS) and the cells were treated with increasing concentrations of each compound for 24 h. […] The plate was shaken at 240 rpm for 10 min and the absorbance was measured at 570 nm.
At least three independent experiments were conducted in triplicate for each cell line and toxicity endpoint. […] Differences between samples and the control were evaluated using the statistical analysis package SPSS 14.0. […]

[4] = test system: SK-OV-3; assay: MTT cytotoxicity assay, complexes 1-6; type: cell-based, Human; details: SK-OV-3 ovarian cancer, 24 hr exposure, mean of three independent experiments +/- standard error
Experimental: (§5) MTT Assay. This method is based on the reduction of the tetrazolium salt, methylthiazolyldiphenyl-tetrazolium bromide (MTT) into a crystalline blue formazan product by the cellular oxidoreductases of viable cells. The resultant formazan crystal formation is proportional to the number of viable cells. Cells were seeded at 4x 10^5 cells/ml in 96-well plates and incubated at 37°C in 5% CO2 for 24 hours. Cells were treated with a four log range of concentration of the test compounds in triplicate from 0.1 to 500 µM or with a solvent control (0.5% DMSO) in complete medium. Following 24 h incubation, cells were incubated with 20 µl of MTT (5 mg/ml) in 0.1 M PBS, pH 7.4 at 37 °C in a humid atmosphere with 5% CO2 for 4 h. Media was then gently aspirated from test cultures and 100 µL of dimethyl sulphoxide (DMSO) was added to all wells. The plates were then shaken for 2 min and the absorbance was read at 550 nm in a Varioscan plate reader. The IC50 was defined as the concentration of test compound required to reduce the absorbance of the MTT-formazan crystals by 50%, indicating 50% cell deactivation.
Cu(II) bis-phen complexes 4-6 display rapid, low micomolar toxicities against all tumor lines. […] It should be noted that 6 is dinuclear and so contains two active copper units, which may explain this heightened potency.

[5] = test system: MCF-7; assay: MTT cytotoxicity assay, complexes 1-6; type: cell-based, Human; details: 24 hr exposure, mean of three independent experiments +/- standard error
Experimental: (§6) Human colon cancer cell line, HT29 (passage 17 to 30, ATCC, USA), was grown in McCoys's 5a medium supplemented with 2mM L-glutamine and fetal bovine serum (FBS) 10% and containing 100U/ ml penicillin and 100µg / ml streptomycin at 37°C in a humidified atmosphere with 5% CO2 Human Breast Cancer cell line, MCF-7 (passage 16 to 26, ATCC, USA) was grown in Eagle's minimum essential medium containing 2mM L-glutamine, 100U/ ml penicillin,100µg/ ml streptomycin, FBS (10%), 1mM sodium pyruvate and 1% (v/v) non essential amino acids at 37°C in a humidified atmosphere with 5% CO2 Human prostate cancer cell line, DU145 (passage 12 to 29, ATCC, USA) was grown in Eagle's minimum essential medium containing 2mM L-glutamine, 100U/ ml penicillin, 100µg/ ml streptomycin, FBS (10%), 1mM sodium pyruvate and 1% (v/v) non essential amino acids at 37°C in a humidified atmosphere with 5% CO2. All drugs were tested by MTT assay following 24-hour exposure of cells to each compound. Each value represents the mean IC50 of three independent experiments +/- standard error.
as §5

[6] = test system: HT29; assay: MTT cytotoxicity assay, complexes 1-6; type: cell-based, Human; details: 24 hr exposure, mean of three independent experiments +/- standard error
Experimental: as §6, §5

[7] = test system: DU145; assay: MTT cytotoxicity assay, complexes 1-6; type: cell-based, Human; details: 24 hr exposure, mean of three independent experiments +/- standard error
Experimental: as §6, §5

[8] = Solubility in organic solvents; details: DMSO/DMF
[9] = test system: poly[d(A-T)]2; assay: DNA-ethidium fluorescence quenching; type: binding; details: Q = equivalent concentration required to reduce fluorescence by 50%; 2.0 µM EtBr, 20 µM DNAp, 2 mM NaOAc buffer, 9.3 mM NaCl, pH 5.0
Experimental: (§7) DNA-Ethidium Fluorescence Quenching. Working solutions containing 20 µM poly[d(AT)]2 (ε260 = 13,100 M(bp)^-1 cm^-1), poly[d(G-C)]2 (ε260 = 16,800 M(bp)^-1 cm^-1) and CT-DNAp (ε260 = 12,824 M(bp)^-1 cm^-1) along with 2.0 µM Et in NaOAc buffer (2 mM NaOAc, 9.3 mM NaCl, 0.1 mM Na2EDTA, pH = 5.0) were prepared. Subsequent experimental steps are identical to the displacement experiment with the exception that a fluorescence reading of 200 arbitrary units with measurements being recorded over a 20-s interval was used. From a plot of the fluorescence vs added drug concentration, the Q values is given by the concentration required to effect 50% removal of the initial fluorescence.

[10] = test system: poly[d(G-C)]2; assay: DNA-ethidium fluorescence quenching; type: binding; details: Q = equivalent concentration required to reduce fluorescence by 50%; 2.0 µM EtBr, 20 µM DNAp, 2 mM NaOAc buffer, 9.3 mM NaCl, pH 5.0
Experimental: as §7

[11] = test system: CT-DNA; assay: Competitive ethidium bromide displacement; type: binding, calf; details: 1.2 µM EtBr, 1 µM CT-DNAp, pH 7.0; for Kapp (apparent binding constant): Kapp = Ke x 1.26/C50 where Ke = 9.5 x 10^6 M(bp)^-1; for IC50: final volume 2 mL, 10 mM TES, 0.1 mM Na2EDTA, read-out: C50 = concentration required to reduce fluorescence by 50%
Experimental: Competitive Ethidium Displacement. […] Complexes 4-6, actinomycin D, pentamidine isethionate were prepared at 2.0 mM in DMSO. Two millilitres of DNA-Et solution were placed in a 10-mm quartz cuvet (3 mL) and positioned in a temperature controlled (20°C) spectrofluorometer (Perkin Elmer LS55B Luminescence Spectrometer). Excitation and emission wavelengths were set to 546 and 595 nm, respectively. After thermal equilibrium was established the emission and excitation slits were modified to give a fluorescence reading of 50 arbitrary units with measurements being recorded over a 20-s interval. An aliquot of complex or drug solution was taken (0.5 - 10 µL), was added to the cuvette and after equilibration the fluorescence reading was recorded. Repeated aliquots were added until the fluorescence was 20-40% of the initial control. Triplicate titrations were preformed and the apparent binding constants were calculated using Kapp = Ke x 1.26/C50 where Ke = 9.5 x 10^6 M(bp)^-1.

[12] = Homo sapiens, MCF7, MCF-7 breast cancer
[13] = Homo sapiens, HT-29, HT29 colon cancer
[14] = Homo sapiens, DU-145, DU145 prostate cancer

Compound	IC50 ([4]; Homo sapiens)	IC50 [5, 12]	IC50 [6, 13]	IC50 [7, 14]	IC50 [4]	IC50 ([5]; MCF-7 breast cancer)	IC50 ([6]; HT29 colon cancer)	IC50 ([7]; DU145 prostate cancer)	IC50 [9]	IC50 [10]	Kapp (apparent binding constant) [11]	IC50 [11]	other results
c1cnc2c(c1)ccc1cccnc12 [phen, 1,10-phenanthroline]	286 ± 28.5 µM	338 ± 64.7 µM	377 ± 9.2 µM	272 ± 8 µM									Activity LD50 [1]: >100 µM; Activity LD50 [2]: >100 µM; Activity LD50 [3]: >100 µM
{[Cu(ph)(H2O)]}n [Complex 1]					> 500 µM	> 500 µM	> 500 µM	> 500 µM					
{[Cu(isoph)(H2O)3]2H2O}n [Complex 2]					436 ± 29.4 µM	401 ± 54.1 µM	> 500 µM	422 ± 22.4 µM					Solubility [8]: DMSO/DMF
O=C(O)c1cccc(C(=O)O)c1 [isophH2, isophthalic acid, reference compound]	> 500 µM	> 500 µM	> 500 µM	> 500 µM									
O.O.O.O.O.O=C([O-])c1cccc(C(=O)[O-])c1.[Cu+2].c1cnc2c(c1)ccc1cccnc12.c1cnc2c(c1)ccc1cccnc12 [Complex 5, [Cu(isoph)(phen)2]5H2O]					6.6 ± 0.4 µM	41.2 ± 1.4 µM	5.8 ± 0.2 µM	10.6 ± 2.2 µM	20.9 µM	37.3 µM	1.20x10^5 M(bp)^-1	99.8 µM	Solubility [8]: DMSO/DMF
Cc1c2oc3c(C)ccc(C(=O)NC4C(=O)NC(C(C)C)C(=O)N5CCCC5C(=O)N(C)CC(=O)N(C)C(C(C)C)C(=O)OC4C)c3nc-2c(C(=O)NC2C(=O)NC(C(C)C)C(=O)N3CCCC3C(=O)N(C)CC(=O)N(C)C(C(C)C)C(=O)OC2C)c(N)c1=O (stereo not drawn) [actinomycin D, reference compound] (I: TVP[Sar][NMeV] / II: TVP[Sar][NMeV]; ester I:1-I:C, II:1-II:C; linker I:N-II:N via Actinocin(9to1); configuration not given here)									314 µM	4.25 µM	9.69 x 10^5 M(bp)^-1	12.3 µM	
N=C(N)c1ccc(OCCCCCOc2ccc(C(=N)N)cc2)cc1 [pentamidine, reference compound]									44.9 µM	203 µM	6.07x10^5 M(bp)^-1	19.7 µM	
N.N.[Cl][Pt][Cl] [Cisplatin, reference compound]					> 500 µM	90.8 ± 3.5 µM	349 ± 80.6 µM	> 500 µM					
{[Cu(tereph)(H2O)3]2H2O}n [Complex 3]					> 500 µM	414 ± 26 µM	> 500 µM	> 500 µM					
O=C(O)c1ccccc1C(=O)O [phH2, phthalic acid, reference compound]	> 500 µM	> 500 µM	> 500 µM	> 500 µM									
O=C(O)c1ccc(C(=O)O)cc1 [terphH2, terephthalic acid, reference compound]	> 500 µM	> 500 µM	> 500 µM	> 500 µM									
O=C1c2c(O)ccc(O)c2C(=O)c2c(NCCNCCO)ccc(NCCNCCO)c21 [mitoxantrone, reference compound]	54.5 ± 2.6 µM	7.5 ± 0.2 µM	8 ± 0.6 µM	27.3 ± 5.6 µM									
[Cu(ph)(phen)2]8H2O [Complex 4]					6.7 ± 0.4 µM	44.9 ± 7 µM	6 ± 0.4 µM	11.6 ± 4.5 µM	26.2 µM	69.8 µM	1.21x10^5 M(bp)^-1	99.1 µM	Solubility [8]: forms only suspensions in DMSO/DMF
